# From PMC12196476, “New Nitrogen-, Oxygen-, and Sulfur-Containing Heterocyclic Compounds as Anti-Colon Cancer Agents: Synthesis, Multitargeted Evaluations, Molecular Docking Simulations and ADMET Predictions” (Pharmaceuticals, 2025)
# How the values were obtained:
# [1] = tested on: LoVo colon carcinoma cells; test: Cell viability, LDH release assay, LoVo; conditions: for IC50 / viability at 100 µg/mL: Homo sapiens, LoVo, 48 h; for IC50: read-out: Mean IC50 Values in µM ± SD, LoVo cells; for viability at 100 µg/mL: read-out: Mean % of viable cells ± SD, LoVo, 100 µg/mL, 48 h, LDH release assay
# Protocol: (§1) The studied compounds were also screened for their cytotoxic effects on HCT-116 and LoVo colon carcinoma cells, as well as normal HUVECs, using the standard LDH assay at a concentration of 100 µg/mL.
# (§2) The antiproliferative activities of the newly synthesized compounds 3a–e, 8, 9a–c, 13, 14, 17, 18a–h, 20, 22, 23 and 25 were examined on human colon HCT-116 and LoVo cell lines as well as HUVEC (American Type Culture Collection, Manassas, VA, USA). […]
# (§3) S3.2.4. Cell culture and viability assay.
# (§4) The cytotoxic activities of the newly synthesized compounds (3a-e, 8, 9a-c, 13, 14, 17, 18a-h, 20, 22,
# (§5) 23, and 25) were examined on human colon cancer cell lines HCT-116 and Lovo (American Type
# (§6) Culture Collection, USA). Various concentrations (50, 100, 200, and 400 μg/mL) of test compounds
# (§7) were prepared in Dulbecco’s Modified Eagles Medium (PAN-Biotech, Barcelona, Spain),
# [2] = tested on: HCT-116 colon carcinoma cells; test: Cell viability, LDH release assay, HCT-116; conditions: for IC50 / viability at 100 µg/mL: Homo sapiens, HCT-116, 48 h; for IC50: read-out: Mean IC50 Values in µM ± SD, HCT-116 cells; for viability at 100 µg/mL: read-out: Mean % of viable cells ± SD, HCT-116, 100 µg/mL, 48 h, LDH release assay
# Protocol: as §1, §2, §3, §4, §5, §6, §7
# [3] = DPPH radical scavenging assay; conditions: three independent experiments; read-out: Mean IC50 (mM) for initial DPPH radicals ± SD
# Protocol: The antioxidant activities of the studied compounds were assessed using the 1,1-diphenyl-2-picrylhydrazyl (DPPH) radical scavenging method as detailed by Bersuder et al.. The results were expressed as IC50 (mM)—the concentration of the test compound required to neutralize 50% of DPPH radicals.
# The antioxidant efficiencies of target compounds were determined using the 1,1-diphenyl-2-picrylhydrazyl (DPPH) radical scavenging method as detailed by Bersuder et al.. […]
# S3.2. Evaluation of Biological Activities.
# S3.2.1. In vitro DPPH radical scavenging assay.
# The antioxidant efficiencies of compounds—3a−e, 8, 9a−c, 13, 14, 17, 18a−h, 20, 22, 23, and 25—were
# determined using the 1,1-diphenyl-2-picrylhydrazyl (DPPH) radical scavenging method as
# detailed by Bersuder et al.. Fundamentally, the purple color of the stabilized DPPH radical
# fades in the presence of an antioxidant, thus, the change of absorbance can be followed
# spectrophotometrically at 519 nm. In the assay, equal volumes (0.5 mL) of DPPH ethanolic solution
# and each compound (0-2 mg/mL in DMSO) or butylated hydroxytoluene (BHT) as the reference
# were mixed well by shaking. The negative control consisted of the same amount of DMSO and
# DPPH solution. After, incubation all mixtures at room temperature in the dark for one hour, the
# absorbance of the residual DPPH radicals was measured at 519 nm using the UV‐vis
# spectrophotometer. The DPPH radical scavenging activity of each compound (%) was calculated
# Scavenging activity = (1 − Acompound/AControl) * 100, where Acompound and Acontrol the absorbance values
# of each tested compound (or BHT) and the negative control, respectively. The half maximal
# inhibitory concentration (IC50) for each compound in mg/mL was deduced by graphing the dose-
# response curve relating the scavenging activity (%) to the compound concentration. Data points
# represent the mean ± standard deviation (SD) of three independent determinations.
# [4] = molecular target: recombinant human LDHA protein (Homo sapiens, UniProt P00338); test: In vitro LDHA inhibitory assay (NADH consumption); type: biochemical; conditions: for inhibition at 100 µg/mL: three replicates, read-out: Mean Inhibition Percent ± SD, LDHA
# Excerpt: The LDHA inhibitory efficiencies were investigated on Spectramax M2 spectrofluorometer via measuring the amounts of the consumed NADH^40 using an NAD^+/NADH quantification kit. […]
# S3.2.3. In vitro LDHA inhibitory assay.
# The LDHA inhibitory activity of the test compounds was investigated using Spectramax M2
# spectrofluorometer by measuring the amounts of the consumed NADH [42] employing
# NAD+/NADH quantification kit. Briefly, the assay medium containing various concentrations of
# each test compound (50, 100, 200 and 300 μg/mL) was incubated in assay medium composed of 20
# mM of HEPES-K+ buffer (pH 7.2), 20 μM of NADH, 2 mM of pyruvate and 10 ng of purified
# recombinant human LDHA protein for 10 min utes. The activity of LDHA would result in reduction
# of pyruvate into lactate with concomitant oxidation of NADH to NAD +. Since NADH (reduced
# […] by monitoring the change in the intensity of the fluorescence
# at 340 nm over a 10-minute period. The rate of the fluorescence change (slope) in treated samples
# was compared to that obtained from negative control experiment (100 % enzymatic activity) to
# determine the percentage of inhibition. The IC50 value—defined as the compound concentration
# required to reduce the luminescence by 50%, compared to untreated control wells—was
# determined for each compound from the corresponding dose–response curve generated by
# plotting LDHA inhibition (%) against compound concentration.
# was used as the reference LDHA inhibitor. […]
# PDK-1 = PDK-1 (Homo sapiens, UniProt Q15118); test: In vitro PDK-1 inhibition assay (Kinase-Glo luminescent kinase kit); type: biochemical; conditions: for inhibition at 100 µg/mL: three replicates, read-out: Mean Inhibition Percent ± SD, PDK-1
# PDK-1, sequence (Q15118 29-436): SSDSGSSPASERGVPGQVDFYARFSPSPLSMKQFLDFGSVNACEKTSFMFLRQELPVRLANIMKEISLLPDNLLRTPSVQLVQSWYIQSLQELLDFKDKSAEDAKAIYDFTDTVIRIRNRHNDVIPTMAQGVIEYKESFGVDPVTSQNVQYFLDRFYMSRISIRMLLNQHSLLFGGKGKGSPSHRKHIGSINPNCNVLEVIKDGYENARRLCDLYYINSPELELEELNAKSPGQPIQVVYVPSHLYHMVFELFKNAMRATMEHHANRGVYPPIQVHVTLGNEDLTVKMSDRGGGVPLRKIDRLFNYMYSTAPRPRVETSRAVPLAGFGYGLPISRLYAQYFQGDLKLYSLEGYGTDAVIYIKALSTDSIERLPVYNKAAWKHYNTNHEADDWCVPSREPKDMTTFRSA
# Protocol: Principally, the PDK-1 inhibitory activities were evaluated using the non-radioactive Kinase-Glo™ Luminescent Kinase Kit (Promega Corporation, Madison, WI, USA) following the instructions of the manufacturer.
# S3.2.2. In vitro PDK-1 inhibition assay.
# The PDK-1 inhibitory activities of the test compounds were evaluated using the non-radioactive
# Kinase-Glo™ Luminescent Kinase kit (Promega Corporation, Madison, WI, USA), following the
# manufacturer’s protocol. Briefly, 5 μL of assay buffer—containing 10 × 250 mM Tris-HCl, 50 mM
# MgCl2, 5 mM ethyleneglycol-bis(β-aminoethylether)-N,N,N′,N′-tetraacetic acid (EGTA), 10 mM
# ethylenedi- aminetetraacetic acid (EDTA), and 10 mM dithiothreitol (DTT)—was added to each
# well of a 96-well plate, along with 25 μL of distilled water. Subsequently, 5 μL of each test
# compound at various concentrations (50, 100, 200 and 300 μg/mL in 1% DMSO) was added to the
# respective wells, except for the two control wells, which received 5 μL of either PBS buffer or 1%
# DMSO. Then, 5 μL of pyruvate dehydrogenase E1 (PDH E1) protein (10 μM) and 5 μL of ATP
# (10 μM) were added to each well. To initiate phosphorylation, 5 μL of PDK-1 (20 μM) in protein
# buffer (1 mM MgCl2, 2000 mM KCl, 40 mM K3PO4) was added to all the wells except the control
# wells, which received 5 μL of protein buffer instead. The plate was then mixed thoroughly and
# incubated at 37 °C for 30 minutes. After incubation, 50 μL of kinase-Glo® reagent was added to each
# well, followed by a 10-minute incubation at room temperature with gentle shaking to stabilize the
# luminescent signal. Luminescence was then measured using a microplate reader.
# The IC50 value—defined as the concentration of a compound required to reduce luminescence by
# 50%, compared to untreated control wells—was determined for each compound from the
# corresponding dose–response curve generated by plotting PDK-1 inhibition (%) versus compound
# concentration. Sodium dichloroacetate (SDA, 1000 μM) was used as a reference PDK-1inhibitor. […]
# [5] = Cell viability, LDH release assay, normal HUVECs; conditions: human, normal HUVECs, Mean % of viable cells ± SD, HUVEC
# Protocol: as §1, §2
# medium served used as negative and positive controls, respectively. Percentages of viable cells […]
# were calculated based on relative optical density (OD) values (at 550 nm) for compound-treated […]
# wells (final concentration of 100 μg/mL), compared to the negative control, and expressed as mean value (%) ± SD from two replicates. Graphing dose-response curves representing the compound […]
# concentration versus the percentages of viable cells was also conducted to deduce the half - […]
# Additionally, the safety profiles of the studied compounds were assessed against normal cells […]
# (HUVECs) at final concentration of 100 μg/mL . HUVECs were grown in Dulbecco’s Modified Eagle’s Medium supplemented with 10% FBS, 2 mM glutamine (Sigma Aldrich), 100 units/mL penicillin and […] streptomycin (Life Technologies; Paisley, UK). […]
# [6] = 0.1% Triton X-100 in assay medium
Compound,IC50 [1] [µM],IC50 [2] [µM],IC50 [3] [mM],inhibition at 100 µg/mL [4] [%],inhibition at 100 µg/mL (PDK-1) [%],"IC50 ([4]; three independent experiments, read-out: Mean IC50 µM ± SD, LDHA) [µM]","IC50 (PDK-1; three independent experiments, read-out: Mean IC50 µM ± SD, PDK-1) [µM]","inhibition at 1000 µM ([4]; SO at 1000 µM (111.03 µg/mL), read-out: Mean Inhibition Percent, LDHA (reference inhibitor)) [%]",viability at 100 µg/mL [1] [%],viability at 100 µg/mL [2] [%],"viability at 48 h, 100 µg/mL [5] [%]","Mean % of viable cells, LoVo (positive control) [1, 6] [%]","Mean % of viable cells, HCT-116 (positive control) [2, 6] [%]"
"O=c1[nH]cc(F)c(=O)[nH]1 [Compound 5-FU, 5-Fluorouracil, reference compound]",20 ± 3.21,27 ± 1.87,–,–,–,–,–,–,–,–,–,–,–
"COc1cc2nc(C)n(-c3ccc(-c4nc5ccccc5s4)cc3)c(=O)c2cc1OC [Compound 13, 3-(4-(Benzo[d]thiazol-2-yl)phenyl)-6,7-dimethoxy-2-methylquinazolin-4(3H)-one]",–,–,1.82 ± 0.188,40.2 ± 3.18,40.5 ± 2.76,–,–,–,86.5 ± 2.12,71.5 ± 2.12,84 ± 2.33,–,–
"NC(=O)C(=O)O [SO, sodium oxamate, reference compound]",–,–,–,–,–,–,–,100,–,–,–,–,–
Triton X-100 [reference compound],–,–,–,–,–,–,–,–,–,–,–,0,0

# Continued, in another order:
IC50 [1] [µM],IC50 [2] [µM],IC50 [3] [mM],inhibition at 100 µg/mL [4] [%],inhibition at 100 µg/mL (PDK-1) [%],"IC50 ([4]; three independent experiments, read-out: Mean IC50 µM ± SD, LDHA) [µM]","IC50 (PDK-1; three independent experiments, read-out: Mean IC50 µM ± SD, PDK-1) [µM]","inhibition at 1000 µM ([4]; SO at 1000 µM (111.03 µg/mL), read-out: Mean Inhibition Percent, LDHA (reference inhibitor)) [%]",Compound,viability at 100 µg/mL [1] [%],viability at 100 µg/mL [2] [%],"viability at 48 h, 100 µg/mL [5] [%]","Mean % of viable cells, LoVo (positive control) [1, 6] [%]","Mean % of viable cells, HCT-116 (positive control) [2, 6] [%]"
–,–,0.606 ± 0.015,21.1 ± 0.99,44.7 ± 1.53,–,–,–,"COc1cc2nc(C)n(/N=C/c3ccc(C(F)(F)F)cc3)c(=O)c2cc1OC [Compound 18c, (E)-6,7-Dimethoxy-2-methyl-3-((4-(trifluoromethyl)benzylidene)amino)quinazolin-4(3H)-one]",63 ± 3,71.3 ± 6.51,91.3 ± 2.08,–,–
202 ± 7.82,238 ± 8.12,0.658 ± 0.016,12.2 ± 1.98,65 ± 3.46,–,–,–,"COc1cc(/C=N/n2c(C)nc3cc(OC)c(OC)cc3c2=O)ccc1O [Compound 18d, (E)-3-((4-Hydroxy-3-methoxybenzylidene)amino)-6,7-dimethoxy-2-methylquinazoli-N-4(3H)-one]",30.7 ± 4.24,38 ± 2,86.3 ± 1.53,–,–
320 ± 7.44,410 ± 13.5,1.52 ± 0.07,23.2 ± 1.06,16.6 ± 2.19,–,–,–,"CCOC(=O)c1sc(N2C(=O)CSCC2=O)nc1C [Compound 8, Ethyl 2-(3,5-Dioxothiomorpholino)-4-methylthiazole-5-carboxylate]",13.5 ± 0.71,26.5 ± 2.12,84.6 ± 2.54,–,–
132 ± 7.4,210 ± 2.42,1.38 ± 0.039,16.6 ± 0.78,66.7 ± 1.53,–,–,–,"COc1cc(OC)c(/C=N/n2c(C)nc3cc(OC)c(OC)cc3c2=O)c(OC)c1 [Compound 18a, (E)-6,7-Dimethoxy-2-methyl-3-((2,4,6-trimethoxybenzylidene)amino)quinazolin-4(3H)-one]",48.3 ± 2.83,40.7 ± 4.16,85 ± 1,–,–
277 ± 0.21,302 ± 10.5,0.307 ± 0.01,5.75 ± 0.35,91 ± 2.83,1060 ± 7.64,169 ± 1.81,–,"CCOC(=O)Nn1c(C)nc2cc(OC)c(OC)cc2c1=O [Compound 17, Ethyl (6,7-Dimethoxy-2-methyl-4-oxoquinazolin-3(4H)-yl)carbamate]",10.5 ± 0.71,20.5 ± 2.12,96 ± 2.56,–,–
–,–,0.245 ± 0.027,–,–,–,–,–,"Cc1cc(C(C)(C)C)c(O)c(C(C)(C)C)c1 [BHT, butylated hydroxytoluene, reference compound]",–,–,–,–,–
